Reference: PMC9098913, “In vitro reconstitution of Escherichia coli divisome activation” (Nature Communications, 2022)

Assay: Diffusion coefficient of His-tagged FtsAs and His-SUMO on Tris-NTA membranes (FRAP)
Method: To study colocalization of His-tagged variants of FtsA, 0.5–1 µM of Cy5 labelled His-tagged FtsAs were added to the chamber, incubated for 20 min and washed 6x with reaction buffer. […] To control the density of membrane-bound FtsA, SUVs without and with Tris-NTA lipids were mixed to obtain the respective Tris-NTA concentrations. To perform FRET/FRAP experiments, equimolar concentrations of Cy3 and Cy5 labelled His-tagged FtsAs (total 0.5–1 µM) or His-SUMO-Cys were added to a chamber and treated as above. […] FRAP experiments were performed as described before.
Bleaching the acceptor dye leads to an increase in the donor intensity, which can be used to quantify the Foerster Resonance energy transfer (FRET)[48]. FRET efficiency was quantified with E%=Ipost/Ipost+Ipre⋅100 , where Ipost is the intensity of the […] and Ipre is the […]. […] To extract the contribution of both processes, we adjusted a routine recently published by Gerganova et al.[33]. In short, the code provides the contribution of both modes of recovery by analysing the shape of the fluorescence recovery profile. […] Contribution of diffusion leads to a change of the slope of the outer borders of the bleached region (S4h right). Thus, by measuring the change of the slope of the border recovery, diffusion and simple on/off binding can be distinguished. We developed “FRAPdiff”, a graphical user interface, which uses the original fit routine by David Rutkowski. It can be used directly on.tiff movies with annotated bleach regions as ImageJ ROIs. In addition, we added optional bleach correction, user selectable projection axis (x or y), and optional mirroring of the recovery profiles, if bleaching was not symmetric. The original fit routine for estimating the recovery and diffusion dynamics can be found at https://github.com/davidmrutkowski/1DReflectingDiffusion. FRAPdiff is available at 10.5281/zenodo.6400639[49] under the GPLv3 open-source license.

## FtsA-His6: FtsA WT (1-405) with amphipathic helix replaced by C-terminal His-tag
0.1% Tris NTA, + FtsZ, mean (n: WT 2, R286W 3)
  Diffusion Coefficient: 0.07 µm2/s
0.1% Tris NTA, + FtsZ, replicate Exp1
  Diffusion Coefficient: 0.14 µm2/s
0.1% Tris NTA, + FtsZ, replicate Exp2
  Diffusion Coefficient: 0.000245 µm2/s
0.1% Tris NTA, without FtsZ, replicate Exp1
  Diffusion Coefficient: 0.35 µm2/s
0.1% Tris NTA, without FtsZ, replicate Exp2
  Diffusion Coefficient: 0.29 µm2/s
0.4% Tris NTA, + FtsZ, mean (n: WT 2, R286W 3)
  Diffusion Coefficient: 0.0146 µm2/s
0.4% Tris NTA, + FtsZ, replicate Exp1
  Diffusion Coefficient: 0.0175 µm2/s
0.4% Tris NTA, + FtsZ, replicate Exp2
  Diffusion Coefficient: 0.0117 µm2/s
0.4% Tris NTA, without FtsZ, replicate Exp1
  Diffusion Coefficient: 0.11 µm2/s
0.4% Tris NTA, without FtsZ, replicate Exp2
  Diffusion Coefficient: 0.10 µm2/s
0.6% Tris NTA, + FtsZ, mean (n: WT 5, R286W 5)
  Diffusion Coefficient: 0.0113 µm2/s
0.6% Tris NTA, + FtsZ, replicate Exp1
  Diffusion Coefficient: 0.02 µm2/s
0.6% Tris NTA, + FtsZ, replicate Exp2
  Diffusion Coefficient: 0.01 µm2/s
0.6% Tris NTA, + FtsZ, replicate Exp3
  Diffusion Coefficient: 0.0152 µm2/s
0.6% Tris NTA, + FtsZ, replicate Exp4
  Diffusion Coefficient: 0.00625 µm2/s
0.6% Tris NTA, + FtsZ, replicate Exp5
  Diffusion Coefficient: 0.00411 µm2/s
0.6% Tris NTA, without FtsZ, mean (n: WT 4, R286W 5, SUMO 4)
  Diffusion Coefficient: 0.03 µm2/s
0.6% Tris NTA, without FtsZ, replicate Exp1
  Diffusion Coefficient: 0.0256 µm2/s
0.6% Tris NTA, without FtsZ, replicate Exp2
  Diffusion Coefficient: 0.00783 µm2/s
0.6% Tris NTA, without FtsZ, replicate Exp3
  Diffusion Coefficient: 0.0422 µm2/s
0.6% Tris NTA, without FtsZ, replicate Exp4
  Diffusion Coefficient: 0.046 µm2/s
0.8% Tris NTA, + FtsZ, mean
  Diffusion Coefficient: 0.012 µm2/s
0.8% Tris NTA, + FtsZ, replicate Exp1
  Diffusion Coefficient: 0.00842 µm2/s
0.8% Tris NTA, + FtsZ, replicate Exp2
  Diffusion Coefficient: 0.00437 µm2/s
0.8% Tris NTA, + FtsZ, replicate Exp3
  Diffusion Coefficient: 0.00795 µm2/s
0.8% Tris NTA, + FtsZ, replicate Exp4
  Diffusion Coefficient: 0.03 µm2/s
0.8% Tris NTA, + FtsZ, replicate Exp5
  Diffusion Coefficient: 0.00835 µm2/s
0.8% Tris NTA, without FtsZ, mean
  Diffusion Coefficient: 0.0135 µm2/s
0.8% Tris NTA, without FtsZ, replicate Exp1
  Diffusion Coefficient: 0.0179 µm2/s
0.8% Tris NTA, without FtsZ, replicate Exp3
  Diffusion Coefficient: 8.35e-15 µm2/s
0.8% Tris NTA, without FtsZ, replicate Exp4
  Diffusion Coefficient: 0.0124 µm2/s
0.8% Tris NTA, without FtsZ, replicate Exp5
  Diffusion Coefficient: 0.0374 µm2/s
1% Tris NTA, + FtsZ, mean
  Diffusion Coefficient: 0.02 µm2/s
1% Tris NTA, + FtsZ, replicate Exp1
  Diffusion Coefficient: 0.0115 µm2/s
1% Tris NTA, + FtsZ, replicate Exp2
  Diffusion Coefficient: 0.00322 µm2/s
1% Tris NTA, + FtsZ, replicate Exp3
  Diffusion Coefficient: 0.00542 µm2/s
1% Tris NTA, + FtsZ, replicate Exp4
  Diffusion Coefficient: 0.00574 µm2/s
1% Tris NTA, + FtsZ, replicate Exp5
  Diffusion Coefficient: 0.07 µm2/s
1% Tris NTA, + FtsZ, replicate Exp6
  Diffusion Coefficient: 0.0435 µm2/s
1% Tris NTA, + FtsZ, replicate Exp7
  Diffusion Coefficient: 0.000437 µm2/s
1% Tris NTA, without FtsZ, mean
  Diffusion Coefficient: 0.0254 µm2/s
1% Tris NTA, without FtsZ, replicate Exp1
  Diffusion Coefficient: 0.0438 µm2/s
1% Tris NTA, without FtsZ, replicate Exp2
  Diffusion Coefficient: 0.000108 µm2/s
1% Tris NTA, without FtsZ, replicate Exp3
  Diffusion Coefficient: 6.32e-6 µm2/s
1% Tris NTA, without FtsZ, replicate Exp4
  Diffusion Coefficient: 0.06 µm2/s
Tris 0.10 %, + FtsZ
  Diffusion Coefficient: 0.07 µm2/s
Tris 0.10 %, without FtsZ
  Diffusion Coefficient: 0.32 µm2/s
Tris 0.40 %, + FtsZ
  Diffusion Coefficient: 0.0146 µm2/s
Tris 0.40 %, without FtsZ
  Diffusion Coefficient: 0.11 µm2/s
Tris 0.60 %, + FtsZ
  Diffusion Coefficient: 0.0113 µm2/s
Tris 0.60 %, without FtsZ
  Diffusion Coefficient: 0.03 µm2/s
Tris 0.80 %, + FtsZ
  Diffusion Coefficient: 0.012 µm2/s
Tris 0.80 %, without FtsZ
  Diffusion Coefficient: 0.0135 µm2/s
Tris 1.00 %, + FtsZ
  Diffusion Coefficient: 0.02 µm2/s
Tris 1.00 %, without FtsZ
  Diffusion Coefficient: 0.0254 µm2/s
Tris 2.00 %, + FtsZ
  Diffusion Coefficient: 0.000263 µm2/s
Tris 2.00 %, without FtsZ
  Diffusion Coefficient: 0.00604 µm2/s
[…] Tris NTA, + FtsZ, mean (n: WT 2, R286W 3)
  Diffusion Coefficient: 0.03 µm2/s
[…] Tris NTA, + FtsZ, replicate Exp1
  Diffusion Coefficient: 0.05 µm2/s
[…] Tris NTA, + FtsZ, replicate Exp2
  Diffusion Coefficient: 0.0108 µm2/s
[…] Tris NTA, without FtsZ, replicate Exp1
  Diffusion Coefficient: 0.11 µm2/s
[…] Tris NTA, without FtsZ, replicate Exp2
  Diffusion Coefficient: 0.14 µm2/s
[…] Tris-NTA, + N (FtsNcyto), mean
  Diffusion Coefficient: 1.72E-05 µm2/s
[…] Tris-NTA, + N/Z, Exp. 1
  Diffusion Coefficient: 1.69E-05 µm2/s
[…] Tris-NTA, + N/Z, Exp. 2
  Diffusion Coefficient: 1.87E-06 µm2/s
[…] Tris-NTA, + N/Z, Exp. 3
  Diffusion Coefficient: 5.64E-12 µm2/s
[…] Tris-NTA, + N/Z, mean
  Diffusion Coefficient: 6.26E-06 µm2/s
[…] Tris-NTA, + N, Exp. 1
  Diffusion Coefficient: 1.23E-05 µm2/s
[…] Tris-NTA, + N, Exp. 2
  Diffusion Coefficient: 2.69E-05 µm2/s
[…] Tris-NTA, + N, Exp. 3
  Diffusion Coefficient: 1.23E-05 µm2/s
[…] Tris-NTA, + Z (FtsZ), mean
  Diffusion Coefficient: 1.67E-03 µm2/s
[…] Tris-NTA, + Z, Exp. 1
  Diffusion Coefficient: 3.64E-05 µm2/s
[…] Tris-NTA, + Z, Exp. 2
  Diffusion Coefficient: 4.36E-03 µm2/s
[…] Tris-NTA, + Z, Exp. 3
  Diffusion Coefficient: 1.74E-03 µm2/s
[…] Tris-NTA, + Z, Exp. 4
  Diffusion Coefficient: 5.51E-04 µm2/s
[…] Tris-NTA, alone, Exp. 1
  Diffusion Coefficient: 1.17E-02 µm2/s
[…] Tris-NTA, alone, Exp. 2
  Diffusion Coefficient: 2.57E-05 µm2/s
[…] Tris-NTA, alone, Exp. 3
  Diffusion Coefficient: 3.15E-03 µm2/s
[…] Tris-NTA, alone, Exp. 4
  Diffusion Coefficient: 7.92E-04 µm2/s
[…] Tris-NTA, alone, mean
  Diffusion Coefficient: 3.92E-03 µm2/s
